Measurements reported in patent EP1840117A1, “Mono- and disubstituted 3-propyl gamma-aminobutyric acids” (Warner-Lambert Company LLC, priority 1999, dated 2000).

Legend:
[1] = tested on: DBA/2 mice; assay: anticonvulsant protection (DBA2 mouse model of anticonvulsant efficacy, sound-induced seizures); format: in vivo; set-up: Anticonvulsant % Protect 2 hr: concentration or dose not given beside the values; details: for Anticonvulsant % Protect* 1h / Anticonvulsant % Protect* 2h: dosed at 30 mg/kg PO; for Anticonvulsant % Protect 2 hr: Table 1
[2] = anxiolytic activity relative to pregabalin (model not given); format: in vivo; details: dosed at 30 mg/kg PO; percent of pregabalin activity

## CCC[C@@H](C)C[C@H](CN)CC(=O)O.Cl [(3S,5R)-3-Aminomethyl-5-methyl-octanoic acid hydrochloride]
[1]
  Anticonvulsant % Protect* 1h: 100%
  Anticonvulsant % Protect* 2h: 100%

## CCC(C)CC(CN)CC(=O)O (centres unmarked)
[1]
  Anticonvulsant % Protect 2 hr: 100%

## CC(C)[C@H](C)[C@H](CN)CC(=O)O [(3R,4S)-3-Aminomethyl-4,5-dimethyl-hexanoic acid]
[2]
  Anxiolytic Activity* % Preg. Act.: 58%

## CCCCC[C@H](C)C[C@H](CN)CC(=O)O [(3S,5S)-3-Aminomethyl-5-methyl-decanoic acid]
[1]
  Anticonvulsant % Protect* 1h: 0%

## CCCC(C)CC(CN)CC(=O)O (centres unmarked) [3-Aminomethyl-5-methyloctanoic acid, 3-Aminomethyl-5-methyl-octanoic acid]
[1]
  Anticonvulsant % Protect* 2h: 100%

## CC(C)CC(CN)CC(=O)O (centres unmarked) [reference compound]
[1]
  Anticonvulsant % Protect 2 hr: 100%

## CC(C)[C@@H](C)C(CN)CC(=O)O (some centres unmarked)
[1]
  Anticonvulsant % Protect 2 hr: 100%

## CC(C)[C@@H](C)[C@@H](CN)CC(=O)O [(3S,4R)3-Aminomethyl-4,5-dimethyl-hexanoic acid]
[2]
  Anxiolytic Activity* % Preg. Act.: 12%

## CCC(CC)C(CN)CC(=O)O (centres unmarked)
[1]
  Anticonvulsant % Protect 2 hr: 20%

## CC[C@@H](C)[C@H](CN)CC(=O)O
[1]
  Anticonvulsant % Protect 2 hr: 0%
